Assay results: ChEMBL document CHEMBL5518181, “Studies of antibacterial activity (in vitro and in vivo) and mode of action for des-acyl tridecaptins (DATs)” (Eur J Med Chem, 2024)
In brackets after ≈: the same amount, converted by molar mass.

What was measured:
[1] = test system: Escherichia coli; test: Antibacterial activity against wild-type Escherichia coli ATCC 25922 assessed as inhibition of bacterial growth incubated for 18 hrs; type: functional; conditions: read-out: MIC100
[2] = Hemolytic activity in human red blood cells at 400 ug/ml incubated for 45 mins by spectrophotometric analysis relative to control; type: toxicity, cell-based, Erythrocyte; conditions: red blood cells (erythrocytes), at 400 µg/mL, read-out: Activity
[3] = test system: Klebsiella pneumoniae; test: Antibacterial activity against wild-type Klebsiella pneumoniae ATCC 13883 assessed as inhibition of bacterial growth incubated for 18 hrs; type: functional; conditions: read-out: MIC100
[4] = Cytotoxicity against human HepG2 cells incubated for 40 hrs by celltiter-glo luminescent cell viability assay; type: toxicity, cell-based

SMILES: CC[C@H](C)[C@@H](NC(=O)[C@@H](NC(=O)[C@H](CCC(=O)O)NC(=O)[C@H](Cc1ccccc1)NC(=O)[C@@H](CCN)NC(=O)[C@H](CCN)NC(=O)[C@H](CO)NC(=O)[C@@H](Cc1c[nH]c2ccccc12)NC(=O)[C@@H](CO)NC(=O)CNC(=O)[C@@H](C)NC(=O)[C@H](N)C(C)C)C(C)C)C(=O)N[C@@H](C)C(=O)O
- MIC [1]: > 64 µg/mL
- hemolysis at 0.75 h, 400 ug/ml [2]: 0.1%
- MIC [3]: > 64 µg/mL
- IC50 at 40 h [4]: > 170 µg/mL

SMILES: CC[C@H](C)[C@@H](NC(=O)[C@@H](NC(=O)[C@H](CCC(=O)O)NC(=O)[C@H](Cc1ccccc1)NC(=O)[C@@H](CCN)NC(=O)[C@H](CCN)NC(=O)[C@H](CO)NC(=O)[C@@H](Cc1c[nH]c2ccccc12)NC(=O)[C@@H](CO)NC(=O)CNC(=O)[C@@H](CCN)NC(=O)[C@H](N)CCN)C(C)C)C(=O)N[C@@H](C)C(=O)O
- MIC [1]: > 64 µg/mL
- hemolysis at 0.75 h, 400 ug/ml [2]: 0%
- MIC [3]: > 64 µg/mL
- IC50 at 40 h [4]: > 170 µg/mL

SMILES: CC[C@H](C)[C@@H](NC(=O)[C@H](CC1CCCCC1)NC(=O)[C@H](CCC(=O)O)NC(=O)[C@H](Cc1ccccc1)NC(=O)[C@@H](CCN)NC(=O)[C@H](CCN)NC(=O)[C@H](CO)NC(=O)[C@@H](Cc1c[nH]c2ccccc12)NC(=O)[C@@H](CO)NC(=O)CNC(=O)[C@@H](CCN)NC(=O)[C@H](NC(=O)[C@H](C)N)C(C)C)C(=O)N[C@@H](C)C(=O)O [listing 1 of 2 here]
- MIC [1]: 2 µg/mL (≈ 1.32 µM)
- MIC [3]: 2 µg/mL (≈ 1.32 µM)

SMILES: CC[C@H](C)[C@@H](NC(=O)[C@@H](NC(=O)[C@H](CCC(=O)O)NC(=O)[C@H](C)NC(=O)[C@@H](CCN)NC(=O)[C@H](CCN)NC(=O)[C@H](CO)NC(=O)[C@@H](Cc1c[nH]c2ccccc12)NC(=O)[C@@H](CO)NC(=O)CNC(=O)[C@@H](CCN)NC(=O)[C@H](NC(=O)[C@H](C)N)C(C)C)C(C)C)C(=O)N[C@@H](C)C(=O)O
- MIC [1]: > 64 µg/mL
- hemolysis at 0.75 h, 400 ug/ml [2]: 0%
- MIC [3]: > 64 µg/mL
- IC50 at 40 h [4]: > 170 µg/mL

SMILES: CC[C@H](C)[C@@H](NC(=O)[C@H](CC1CCCCC1)NC(=O)[C@H](CCC(=O)O)NC(=O)[C@H](Cc1ccccc1)NC(=O)[C@@H](CCN)NC(=O)[C@H](CCN)NC(=O)[C@H](CO)NC(=O)[C@@H](Cc1c[nH]c2ccccc12)NC(=O)[C@@H](CO)NC(=O)CNC(=O)[C@@H](CCN)NC(=O)[C@H](NC(=O)[C@H](C)N)C(C)C)C(=O)N[C@@H](C)C(=O)O [listing 2 of 2 here]
- hemolysis at 0.75 h, 400 ug/ml [2]: 59%
- IC50 at 40 h [4]: 9 µg/mL (≈ 5.92 µM)

SMILES: CC[C@H](C)[C@@H](NC(=O)[C@@H](NC(=O)[C@H](CCC(=O)O)NC(=O)[C@H](Cc1cccc2ccccc12)NC(=O)[C@@H](CCN)NC(=O)[C@H](CCN)NC(=O)[C@H](CO)NC(=O)[C@@H](Cc1c[nH]c2ccccc12)NC(=O)[C@@H](CO)NC(=O)CNC(=O)[C@@H](CCN)NC(=O)[C@H](NC(=O)[C@H](C)N)C(C)C)C(C)C)C(=O)N[C@@H](C)C(=O)O
- MIC [1]: 2 µg/mL (≈ 1.32 µM)
- hemolysis at 0.75 h, 400 ug/ml [2]: 52.9%
- MIC [3]: 1 µg/mL (≈ 0.66 µM)
- IC50 at 40 h [4]: 83 µg/mL (≈ 54.8 µM)

SMILES: CC[C@H](C)[C@@H](NC(=O)[C@@H](NC(=O)[C@H](CCC(=O)O)NC(=O)[C@H](Cc1ccccc1)NC(=O)[C@@H](CCN)NC(=O)[C@H](CCN)NC(=O)[C@H](CO)NC(=O)[C@@H](Cc1c[nH]c2ccccc12)NC(=O)[C@@H](CO)NC(=O)CNC(=O)[C@@H](CN)NC(=O)[C@H](NC(=O)[C@H](C)N)C(C)C)C(C)C)C(=O)N[C@@H](C)C(=O)O
- MIC [1]: > 64 µg/mL
- hemolysis at 0.75 h, 400 ug/ml [2]: 0%
- MIC [3]: > 64 µg/mL
- IC50 at 40 h [4]: > 170 µg/mL

SMILES: CC[C@H](C)[C@@H](NC(=O)[C@@H](NC(=O)[C@H](CCC(=O)O)NC(=O)[C@H](Cc1ccccc1)NC(=O)[C@@H](CCN)NC(=O)[C@H](CCN)NC(=O)[C@H](CO)NC(=O)[C@@H](Cc1c[nH]c2ccccc12)NC(=O)[C@@H](CO)NC(=O)[C@H](CCCCN)NC(=O)[C@@H](CCN)NC(=O)[C@H](NC(=O)[C@H](C)N)C(C)C)C(C)C)C(=O)N[C@@H](C)C(=O)O
- MIC [1]: 16 µg/mL (≈ 10.4 µM)
- hemolysis at 0.75 h, 400 ug/ml [2]: 0.5%
- MIC [3]: 32 µg/mL (≈ 20.8 µM)
- IC50 at 40 h [4]: > 170 µg/mL

SMILES: CC[C@H](C)[C@@H](NC(=O)[C@@H](NC(=O)[C@H](CCC(=O)O)NC(=O)[C@H](Cc1ccccc1)NC(=O)[C@@H](CCN)NC(=O)[C@H](CCN)NC(=O)[C@H](C)NC(=O)[C@@H](Cc1c[nH]c2ccccc12)NC(=O)[C@@H](CO)NC(=O)CNC(=O)[C@@H](CCN)NC(=O)[C@H](N)C(C)C)C(C)C)C(=O)N[C@@H](C)C(=O)O
- MIC [1]: > 64 µg/mL
- hemolysis at 0.75 h, 400 ug/ml [2]: 0%
- MIC [3]: > 64 µg/mL
- IC50 at 40 h [4]: > 170 µg/mL

SMILES: CC[C@H](C)[C@@H](NC(=O)[C@@H](NC(=O)[C@H](CCC(=O)O)NC(=O)[C@H](Cc1ccccc1)NC(=O)[C@@H](CCN)NC(=O)[C@H](CCN)NC(=O)[C@H](CO)NC(=O)[C@@H](Cc1c[nH]c2ccccc12)NC(=O)[C@@H](CO)NC(=O)CNC(=O)[C@@H](CCN)NC(=O)[C@H](NC(=O)[C@H](C)NC)C(C)C)C(C)C)C(=O)N[C@@H](C)C(=O)O
- MIC [1]: 8 µg/mL (≈ 5.41 µM)
- hemolysis at 0.75 h, 400 ug/ml [2]: 5.3%
- MIC [3]: 8 µg/mL (≈ 5.41 µM)
- IC50 at 40 h [4]: > 70 µg/mL

SMILES: CC[C@H](C)[C@@H](NC(=O)[C@@H](NC(=O)[C@H](CO)NC(=O)[C@H](Cc1ccccc1)NC(=O)[C@@H](CCN)NC(=O)[C@H](CCN)NC(=O)[C@H](CO)NC(=O)[C@@H](Cc1c[nH]c2ccccc12)NC(=O)[C@@H](CO)NC(=O)CNC(=O)[C@@H](CCN)NC(=O)[C@H](N)C(C)C)C(C)C)C(=O)N[C@@H](C)C(=O)O [listing 1 of 2 here]
- MIC [1]: > 64 µg/mL
- MIC [3]: > 64 µg/mL

SMILES: CC[C@H](C)[C@@H](NC(=O)[C@@H](NC(=O)[C@H](CCC(=O)O)NC(=O)[C@H](Cc1ccccc1)NC(=O)[C@@H](CCN)NC(=O)[C@H](CCN)NC(=O)[C@H](CO)NC(=O)[C@@H](Cc1c[nH]c2ccccc12)NC(=O)[C@@H](CO)NC(=O)CNC(=O)[C@H](N)CCN)C(C)C)C(=O)N[C@@H](C)C(=O)O
- MIC [1]: > 64 µg/mL
- hemolysis at 0.75 h, 400 ug/ml [2]: 0%
- MIC [3]: > 64 µg/mL
- IC50 at 40 h [4]: > 170 µg/mL

SMILES: CC[C@H](C)[C@@H](NC(=O)[C@@H](NC(=O)[C@H](CCC(=O)O)NC(=O)[C@H](Cc1ccccc1)NC(=O)[C@@H](CCN)NC(=O)[C@H](CCN)NC(=O)[C@H](CO)NC(=O)[C@@H](Cc1c[nH]c2ccccc12)NC(=O)[C@@H](CCN)NC(=O)CNC(=O)[C@@H](CCN)NC(=O)[C@H](N)C(C)C)C(C)C)C(=O)N[C@@H](C)C(=O)O
- MIC [1]: > 64 µg/mL
- hemolysis at 0.75 h, 400 ug/ml [2]: 0%
- MIC [3]: > 64 µg/mL
- IC50 at 40 h [4]: > 170 µg/mL

SMILES: CC[C@H](C)[C@@H](NC(=O)[C@@H](NC(=O)[C@H](CCC(=O)O)NC(=O)[C@H](Cc1ccccc1)NC(=O)[C@@H](CCN)NC(=O)[C@H](CCN)NC(=O)[C@H](CO)NC(=O)[C@@H](Cc1c[nH]c2ccccc12)NC(=O)[C@@H](CO)NC(=O)[C@H](C)NC(=O)[C@@H](CCN)NC(=O)[C@H](N)C(C)C)C(C)C)C(=O)N[C@@H](C)C(=O)O
- MIC [1]: > 64 µg/mL
- hemolysis at 0.75 h, 400 ug/ml [2]: 0%
- MIC [3]: 64 µg/mL (≈ 45.4 µM)
- IC50 at 40 h [4]: > 170 µg/mL

SMILES: CC[C@H](C)[C@@H](NC(=O)[C@@H](NC(=O)[C@H](CCC(=O)O)NC(=O)[C@H](Cc1ccccc1)NC(=O)[C@@H](CCN)NC(=O)[C@H](CCN)NC(=O)[C@H](CO)NC(=O)[C@@H](C)NC(=O)[C@@H](CO)NC(=O)CNC(=O)[C@@H](CCN)NC(=O)[C@H](NC(=O)[C@H](C)N)C(C)C)C(C)C)C(=O)N[C@@H](C)C(=O)O
- MIC [1]: > 64 µg/mL
- hemolysis at 0.75 h, 400 ug/ml [2]: 0%
- MIC [3]: > 64 µg/mL
- IC50 at 40 h [4]: > 170 µg/mL

SMILES: CC[C@H](C)[C@@H](NC(=O)[C@@H](NC(=O)[C@H](CO)NC(=O)[C@H](Cc1ccccc1)NC(=O)[C@@H](CCN)NC(=O)[C@H](CCN)NC(=O)[C@H](CO)NC(=O)[C@@H](Cc1c[nH]c2ccccc12)NC(=O)[C@@H](CO)NC(=O)CNC(=O)[C@@H](CCN)NC(=O)[C@H](N)C(C)C)C(C)C)C(=O)N[C@@H](C)C(=O)O [listing 2 of 2 here]
- hemolysis at 0.75 h, 400 ug/ml [2]: 0.4%
- IC50 at 40 h [4]: > 170 µg/mL

SMILES: CC(C)[C@H](NC(=O)[C@H](CCC(=O)O)NC(=O)[C@H](Cc1ccccc1)NC(=O)[C@@H](CCN)NC(=O)[C@H](CCN)NC(=O)[C@H](CO)NC(=O)[C@@H](Cc1c[nH]c2ccccc12)NC(=O)[C@@H](CO)NC(=O)CNC(=O)[C@@H](CCN)NC(=O)[C@H](N)C(C)C)C(=O)N[C@H](C)C(=O)N[C@@H](C)C(=O)O
- MIC [1]: > 64 µg/mL
- hemolysis at 0.75 h, 400 ug/ml [2]: 4.3%
- MIC [3]: 64 µg/mL (≈ 47.3 µM)
- IC50 at 40 h [4]: > 170 µg/mL

SMILES: CC[C@H](C)[C@@H](NC(=O)[C@@H](NC(=O)[C@H](CCC(=O)O)NC(=O)[C@H](CC1CCCCC1)NC(=O)[C@@H](CCN)NC(=O)[C@H](CCN)NC(=O)[C@H](CO)NC(=O)[C@@H](Cc1c[nH]c2ccccc12)NC(=O)[C@@H](CO)NC(=O)CNC(=O)[C@@H](CCN)NC(=O)[C@H](NC(=O)[C@H](C)N)C(C)C)C(C)C)C(=O)N[C@@H](C)C(=O)O [listing 1 of 2 here]
- MIC [1]: 4 µg/mL (≈ 2.72 µM)
- MIC [3]: 2 µg/mL (≈ 1.36 µM)

SMILES: CC[C@H](C)[C@@H](NC(=O)[C@@H](NC(=O)[C@H](CCC(=O)O)NC(=O)[C@H](CC1CCCCC1)NC(=O)[C@@H](CCN)NC(=O)[C@H](CCN)NC(=O)[C@H](CO)NC(=O)[C@@H](Cc1c[nH]c2ccccc12)NC(=O)[C@@H](CO)NC(=O)CNC(=O)[C@@H](CCN)NC(=O)[C@H](NC(=O)[C@H](C)N)C(C)C)C(C)C)C(=O)N[C@@H](C)C(=O)O [listing 2 of 2 here]
- IC50 at 40 h [4]: 37 µg/mL (≈ 25.1 µM)

SMILES: CC(C)[C@H](NC(=O)[C@H](CCC(=O)O)NC(=O)[C@H](Cc1ccccc1)NC(=O)[C@@H](CCN)NC(=O)[C@H](CCN)NC(=O)[C@H](CO)NC(=O)[C@@H](Cc1c[nH]c2ccccc12)NC(=O)[C@@H](CO)NC(=O)CNC(=O)[C@@H](CCN)NC(=O)[C@H](N)C(C)C)C(=O)N[C@@H](C(=O)N[C@@H](C)C(=O)O)C(C)(C)C
- MIC [1]: 32 µg/mL (≈ 22.9 µM)
- hemolysis at 0.75 h, 400 ug/ml [2]: 14.4%
- MIC [3]: 8 µg/mL (≈ 5.74 µM)
